Results from ChEMBL document CHEMBL1201862, “PubChem BioAssay data set” (2004).
The source made the active and inactive calls.

Legend:
[1] = target: T1, Heat shock factor protein 1 (Mus musculus, UniProt P38532); experiment: decrease of HSF1-responsive luciferase luminescence – cell-based, NIH3T3, dose retest, confirmation (AID 2382); format: functional;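 also: NIH3T3 fibroblasts with HSF1-driven luciferase reporter stressed by proteasome inhibitor MG132; luminescence from HSF1-driven luciferase expression after 8 hours of MG132 stress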
T1 sequence (P38532 whole entry): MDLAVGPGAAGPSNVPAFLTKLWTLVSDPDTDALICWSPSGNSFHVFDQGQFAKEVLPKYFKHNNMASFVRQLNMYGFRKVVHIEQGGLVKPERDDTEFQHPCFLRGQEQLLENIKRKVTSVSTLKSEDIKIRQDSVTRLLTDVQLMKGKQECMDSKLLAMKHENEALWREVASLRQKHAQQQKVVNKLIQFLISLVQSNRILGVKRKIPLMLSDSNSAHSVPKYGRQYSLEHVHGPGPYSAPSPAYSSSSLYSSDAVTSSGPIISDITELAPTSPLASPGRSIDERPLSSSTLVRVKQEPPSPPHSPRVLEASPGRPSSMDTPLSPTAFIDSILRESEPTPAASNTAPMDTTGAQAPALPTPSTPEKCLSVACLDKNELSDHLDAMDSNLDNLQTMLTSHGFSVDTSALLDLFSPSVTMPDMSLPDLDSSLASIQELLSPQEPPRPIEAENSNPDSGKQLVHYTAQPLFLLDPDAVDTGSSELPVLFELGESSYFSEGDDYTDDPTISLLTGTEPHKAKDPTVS

[2] = viability of PTEN-deleted HCT116 cells – cell-based, HCT116 PTEN knockout, dose response (AID 1047); format: functional;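 also: HCT116 colon tumor cells with PTEN knocked out; cells exposed to compound for 60 hours before readout; potency for loss of cell viability measured by luminescence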
[3] = viability of HCT116 lacking mutant beta-catenin – cell-based, human colon tumor, dose response (AID 1045); format: functional;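 also: HCT116 colon tumor cells with beta catenin knocked out; cells exposed to compound for 60 hours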
[4] = target: Cytochrome P450 3A4 (Homo sapiens, UniProt P08684);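 also: CYP3A4 tested as one member of a cytochrome P450 panel screen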
Cytochrome P450 3A4, sequence (P08684 whole entry): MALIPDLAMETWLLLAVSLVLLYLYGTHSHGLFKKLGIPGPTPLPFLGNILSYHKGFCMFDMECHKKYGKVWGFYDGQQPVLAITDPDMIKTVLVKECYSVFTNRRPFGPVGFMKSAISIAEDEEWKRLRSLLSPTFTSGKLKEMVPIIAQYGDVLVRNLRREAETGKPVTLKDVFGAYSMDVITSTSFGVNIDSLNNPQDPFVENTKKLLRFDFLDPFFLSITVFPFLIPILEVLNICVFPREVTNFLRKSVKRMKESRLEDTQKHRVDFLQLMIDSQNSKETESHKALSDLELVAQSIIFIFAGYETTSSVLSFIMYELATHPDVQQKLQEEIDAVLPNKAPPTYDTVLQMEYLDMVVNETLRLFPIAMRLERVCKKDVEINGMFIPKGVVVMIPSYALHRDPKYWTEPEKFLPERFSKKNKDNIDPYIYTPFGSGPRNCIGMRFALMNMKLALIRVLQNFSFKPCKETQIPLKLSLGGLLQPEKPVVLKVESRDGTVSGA

[5] = Luminescence Cell-Based Dose Confirmation HTS to Identify Inhibitors of Platelet Dense Granule Release. [Related pubchem assays: 1663 (Primary HTS), 1678 (Summary of Project)]; format: functional
[6] = target: Luciferin 4-monooxygenase (Photinus pyralis, UniProt P08659); experiment: inhibition of purified Photinus pyralis luciferase – biochemical, luminescence, dose response (AID 1891)
Luciferin 4-monooxygenase, sequence (P08659 whole entry): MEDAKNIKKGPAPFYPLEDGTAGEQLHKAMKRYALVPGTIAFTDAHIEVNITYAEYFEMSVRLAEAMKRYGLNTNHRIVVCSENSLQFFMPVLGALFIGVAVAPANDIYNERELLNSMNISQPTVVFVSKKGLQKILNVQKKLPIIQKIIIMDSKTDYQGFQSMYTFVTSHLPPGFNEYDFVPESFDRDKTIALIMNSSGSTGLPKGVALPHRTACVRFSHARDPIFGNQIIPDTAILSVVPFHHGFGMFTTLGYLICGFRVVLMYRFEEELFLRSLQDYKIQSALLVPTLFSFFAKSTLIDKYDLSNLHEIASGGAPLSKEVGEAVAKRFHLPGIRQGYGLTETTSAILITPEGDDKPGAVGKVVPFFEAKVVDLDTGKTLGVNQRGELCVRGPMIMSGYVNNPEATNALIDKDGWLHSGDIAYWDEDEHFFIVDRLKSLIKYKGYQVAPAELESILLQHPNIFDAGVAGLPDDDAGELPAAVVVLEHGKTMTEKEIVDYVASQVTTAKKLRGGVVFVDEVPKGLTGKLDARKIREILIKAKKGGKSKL

[7] = Luminescence Cell-Based Dose Retest to Confirm Inhibitors of Cancer Stem Cells. [Related pubchem assays (depositor defined):AID2717, AID2721]; format: functional; conditions: Homo sapiens
[8] = target: T2, Cytochrome P450 1A2 (Homo sapiens, UniProt P05177);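 also: PubChem cytochrome P450 panel assay, CYP1A2 panel member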
T2 sequence (P05177 whole entry): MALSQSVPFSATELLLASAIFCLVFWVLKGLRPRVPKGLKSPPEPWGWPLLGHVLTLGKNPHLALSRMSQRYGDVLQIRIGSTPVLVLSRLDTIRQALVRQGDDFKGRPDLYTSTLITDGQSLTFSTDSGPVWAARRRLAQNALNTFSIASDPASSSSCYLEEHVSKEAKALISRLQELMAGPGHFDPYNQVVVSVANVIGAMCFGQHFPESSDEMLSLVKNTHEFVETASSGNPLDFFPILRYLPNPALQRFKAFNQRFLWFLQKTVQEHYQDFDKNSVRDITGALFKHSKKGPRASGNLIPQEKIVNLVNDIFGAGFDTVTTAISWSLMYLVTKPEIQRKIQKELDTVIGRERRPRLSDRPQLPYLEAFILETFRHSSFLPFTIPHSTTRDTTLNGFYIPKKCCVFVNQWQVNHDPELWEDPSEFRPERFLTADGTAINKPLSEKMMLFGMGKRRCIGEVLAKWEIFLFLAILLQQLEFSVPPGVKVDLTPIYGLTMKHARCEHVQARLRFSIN

[9] = Luminescence Cell-Based Dose Response HTS to Identify Activators of Luciferase Translation or Activity in H4 […] Cells. [Related pubchem assays: 1829 (Project Summary), 1814 (Primary HTS)]; format: functional
[10] = test system: H4; experiment: Luminescence Cell-Based Dose Response HTS to Identify Activators of 5'UTR Stem-Loop Driven Prion Protein mRNA Translation in H4 Neuroglioblastoma Cells. [Related pubchem assays: 1829 (Project Summary), 1814 (Primary HTS)]; format: functional; conditions: Homo sapiens
[11] = test system: INS1; experiment: INS-1E survival protection against cytokine death – cell-based, luminescence, retest, dose response (AID 449756); format: functional; conditions: Rattus norvegicus;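 also: cell death triggered by IL-1 beta plus TNF-alpha plus IFN-gamma mixture; protective hits raise ATP signal compared with cytokine alone wells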
[12] = Trypanosoma cruzi growth suppression in host cells – NIH3T3 host cells, beta-gal luminescence, confirmation (AID 2044); format: functional, cell-based;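 also: intracellular parasites grown in NIH/3T3 mouse fibroblasts as host cells; luminescent beta-galactosidase reporter signal from transgenic T. cruzi replicating inside host cells; inhibitors lower the luminescence signal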
[13] = NIH3T3 cell viability loss – ATP luminescence, mouse fibroblasts, counter-screen, dose response (AID 2010); format: functional, cell-based;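 also: cells exposed to compound for about 90 hours before reading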
[14] = target: Cytochrome P450 2C19 (Homo sapiens, UniProt P33261); experiment: Cytochrome panel assay with activity outcomes. Panel member name: p450-cyp2c19 Compounds with AC50 equal or less than 10 uM are considered active; format: functional; conditions: read-out: AC50
Cytochrome P450 2C19, sequence (P33261 whole entry): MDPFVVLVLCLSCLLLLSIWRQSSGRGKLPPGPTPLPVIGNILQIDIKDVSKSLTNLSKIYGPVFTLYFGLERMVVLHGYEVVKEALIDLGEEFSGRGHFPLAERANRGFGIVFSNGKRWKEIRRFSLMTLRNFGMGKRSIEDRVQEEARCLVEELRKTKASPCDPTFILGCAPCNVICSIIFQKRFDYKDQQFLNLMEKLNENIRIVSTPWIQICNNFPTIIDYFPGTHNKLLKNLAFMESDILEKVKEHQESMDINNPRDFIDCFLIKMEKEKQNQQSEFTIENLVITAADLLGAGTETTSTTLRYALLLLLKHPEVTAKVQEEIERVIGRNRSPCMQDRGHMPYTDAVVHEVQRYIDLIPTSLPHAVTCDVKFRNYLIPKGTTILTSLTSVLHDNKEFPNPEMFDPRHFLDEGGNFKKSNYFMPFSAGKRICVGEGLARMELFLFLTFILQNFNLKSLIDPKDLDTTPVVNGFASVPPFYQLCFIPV

Fc1ccc(-c2nc3c(-c4ccc(Cl)cc4)cnn3cc2CCN2CCOCC2)cc1
EC50 [1]: > 195 µM (not active)

Fc1cnc(N2CCc3ccccc32)nc1N1CCc2ccccc21
EC50 [2]: 30 µM (active) | EC50 [3]: 25.5 µM (active)

Oc1nc2cc3c(cc2cc1C(c1nnnn1C1CCCC1)N1CCSCC1)OCCO3 (centres undefined)
EC50 [2]: 28.9 µM (active) | EC50 [3]: 94.3 µM (active)

COc1cccc(Nc2ncc3nc(CCc4ccccc4)c(=O)n(CCC#N)c3n2)c1
AC50 [4]: 2 µM (inconclusive)

Cc1ccc(-c2nc3cccnc3o2)cc1NC(=O)COc1ccc(Cl)cc1C
EC50 [2]: 5.15 µM (active) | EC50 [3]: 14.6 µM (active)

COc1ccc(CCn2c(=N)c(C(=O)NCC3CCCO3)cc3c(=O)n4ccccc4nc32)cc1OC (centres undefined)
EC50 [5]: > 112 µM (not active) | EC50 [6]: > 112 µM (not active)

COc1cccc(-c2nnc(-c3ccco3)o2)c1
EC50 [5]: 40.9 µM (active) | EC50 [6]: > 112 µM (not active)

COc1ccc(NC(=O)CN(C)CC(=O)Nc2ccc3c(c2)CCC3)cc1
EC50 [1]: > 195 µM (not active)

Cc1ccc(C(=O)Nc2ccc(Br)c(C(F)(F)F)c2)cc1
EC50 [2]: 19.7 µM (active) | EC50 [3]: 23.8 µM (active)

CCCCC(CC)CN1C(=O)/C(=C/c2c[nH]nc2-c2ccccc2)SC1=S (centres undefined)
EC50 [2]: 21.3 µM (active) | EC50 [3]: 21.1 µM (active)

O=C(Oc1ccccc1Cl)c1ccc(-n2cncn2)nc1
EC50 [1]: > 195 µM (not active)

Cc1ccc(C)c(Nc2nc(N)c3ccccc3n2)c1
EC50 [5]: 11 µM (active) | EC50 [6]: 12.2 µM (active)

COc1cc([C@@H]2c3cc4c(cc3[C@@H](O)[C@H]3COC(=O)[C@H]23)OCO4)cc(OC)c1O[Si](C)(C)C(C)(C)C
AC50 [7]: 3.64 µM (active)

COCCNc1ncnc2ccc(-c3ccccc3CN(C)C)cc12
AC50 [8]: 25.1 µM (inconclusive) | AC50 [4]: 31.6 µM (inconclusive)

CC(C)(C)NC(=O)Cn1nnc(-c2ccc(OCc3c(F)cccc3Cl)cc2)n1
AC50 [7]: 1.33 µM (active)

Cc1ccc(Oc2nc(CN3CCOCC3)nc3sc4c(c23)CCC(C)C4)cc1C (centres undefined)
AC50 [7]: 6.74 µM (active) | EC50 [1]: > 195 µM (not active)

O=C1NC(=O)N(CCC2=CCCCC2)C(=O)/C1=C\NNc1ccccc1
AC50 [7]: 2.46 µM (active)

CCOc1ccc(C(=O)CSc2nnc3ccccn23)cc1
EC50 [9]: 35.7 µM (active) | EC50 [10]: > 120 µM (not active)

Cc1ccc2nc(-c3ccc(NS(=O)(=O)c4c(C)n(C)c(=O)n(C)c4=O)cc3)sc2c1
EC50 [9]: 2.06 µM (active)

COc1ccc(NCc2nnc(SCC(=O)Nc3cc(C(F)(F)F)ccc3Cl)o2)cc1
EC50 [1]: > 195 µM (not active)

NC(=O)C1CCN(CC(=O)Nc2nc(-c3ccccc3)cs2)CC1
EC50 [1]: > 195 µM (not active)

CCN(CC)C(=O)CN1C(=O)/C(=C/c2ccccc2)SC1=S
EC50 [1]: > 195 µM (not active)

C=C(C)COc1ccc2c(C)c(CC(=O)OC)c(=O)oc2c1C
EC50 [2]: 81.2 µM (active) | EC50 [3]: 31.9 µM (active)

Cc1nnc2sc(-c3ccc(-c4ccc(Cl)c(C(F)(F)F)c4)o3)nn12
EC50 [5]: > 112 µM (not active) | EC50 [6]: > 112 µM (not active)

O=C(O)CC(NC(=O)C(c1ccccc1)c1ccccc1)c1ccco1 (centres undefined)
EC50 [5]: > 112 µM (not active) | EC50 [6]: > 112 µM (not active)

CCCCn1c(=O)c(C(=O)NCc2ccc(Cl)cc2)c(O)c2ccccc21
AC50 [7]: 5.25 µM (active)

Nn1c(SCC(=O)NC2CCCC2)nnc1-c1ccccc1F
EC50 [1]: > 195 µM (not active)

CC(C)NC(=O)N1CCCC2(CCN(C(=O)c3ccco3)CC2)C1
AC50 [4]: 25.1 µM (inconclusive)

CC1CCCN(C(=O)C2(NC(=O)Nc3cccc(F)c3)CCCCC2)C1 (centres undefined)
EC50 [1]: > 195 µM (not active)

CC(C)(C)C(=O)OCc1nc(-c2ccc3c(c2)OCCO3)cs1
EC50 [1]: > 195 µM (not active)

O=C(COc1ccc(Cl)cc1Cl)NN=C1c2ccccc2-c2ccccc21
EC50 [2]: 7.45 µM (active) | EC50 [3]: 6.99 µM (active)

Cc1c(C=C2C(=O)N(C)C(=O)N(C)C2=O)c(=O)n(-c2ccccc2)n1C
EC50 [1]: > 195 µM (not active)

COc1ccc(-c2nc3scc(-c4ccc(OC)c(OC)c4)c3c(=O)o2)cc1
EC50 [2]: 24.7 µM (active) | EC50 [3]: 16.4 µM (active)

CCCn1c(SCC(=O)N2CCCC(C)C2)nnc1-c1ccccn1 (centres undefined)
EC50 [5]: > 112 µM (not active) | EC50 [6]: > 112 µM (not active)

Cc1ccc2[nH]c(/C(C#N)=C\c3ccc(Oc4ccc([N+](=O)[O-])cn4)cc3)nc2c1
EC50 [2]: 76.4 µM (active) | EC50 [3]: 46.9 µM (active)

CCOc1ccc(C2=NN=C(c3ccc(N4CCOCC4)cc3)c3ccccc3N2)cc1
EC50 [9]: 30.1 µM (active) | EC50 [10]: > 120 µM (not active)

O=C(CC1Nc2ccccc2NC1=O)Nc1ccccc1NC(=O)CC1Nc2ccccc2NC1=O (centres undefined)
EC50 [1]: > 195 µM (not active)

O=C(CSc1nc(-c2ccccc2)cc(C(F)(F)F)n1)c1cccc([N+](=O)[O-])c1
AC50 [7]: 5.41 µM (active)

CCOc1ccc(NC(=O)Nc2cc(C)ccc2F)cc1
EC50 [5]: 1.81 µM (active) | EC50 [6]: 1.02 µM (active)

COc1cc(CNc2ccc3[nH]c(O)nc3c2)ccc1OCC(=O)NC(C)(C)C
EC50 [5]: 12.4 µM (active)

CCCn1c(C)cc(=O)c2cc(NC(=O)c3cnccn3)ccc21
EC50 [2]: 33.7 µM (active) | EC50 [3]: 19.9 µM (active)

Cc1nc(SCC(=O)NCC2CCCO2)nc(O)c1C (centres undefined)
EC50 [1]: > 195 µM (not active)

Cc1occc1-c1nnc(SCC(=O)Nc2ccccc2)n1C
EC50 [1]: > 195 µM (not active)

CN(C)c1ccc(CNC(=O)c2cc(S(=O)(=O)N3CCOCC3)cn2C)cc1
EC50 [5]: > 112 µM (not active) | EC50 [6]: > 112 µM (not active)

COc1ccc(-c2nc(NC(=O)c3cc(C(C)(C)C)nn3C)sc2C)cc1
AC50 [11]: 10.2 µM (active) | EC50 [12]: 1.76 µM (active) | AC50 [7]: 7.12 µM (active) | EC50 [13]: 8.58 µM (active)

Cn1c(SCC(=O)N=Nc2c(O)[nH]c3ccccc23)nc2ccccc21
EC50 [5]: > 112 µM (not active) | EC50 [6]: > 112 µM (not active)

[O-]/[N+](=C/c1ccc(F)cc1)c1ccc(Cl)cc1
EC50 [5]: > 112 µM (not active) | EC50 [6]: > 112 µM (not active)

O=C(/C=C/c1ccc(Br)o1)NCCCN1CCOCC1
EC50 [1]: > 195 µM (not active)

O=C(c1ccccc1-c1nc(-c2ccccc2)no1)N1CCOCC1
AC50 [8]: 39.8 µM (inconclusive) | AC50 [4]: 28.2 µM (inconclusive)

CCOC(=O)N1CCC(NC(=O)c2cc(S(=O)(=O)N3CCCC3)cn2C)CC1
AC50 [4]: 14.1 µM (inconclusive) | AC50 [14]: 8.91 µM (inconclusive)

COc1ccccc1N1CCN(CCn2c(=O)[nH]c3c([nH]c4ccccc43)c2=O)CC1
AC50 [8]: 39.8 µM (inconclusive) | AC50 [4]: 15.8 µM (inconclusive)

O=S(=O)(N/N=C1/CC(c2ccccc2)Oc2ccccc21)c1ccc(Br)cc1 (centres undefined)
AC50 [7]: 2.79 µM (active)

CN(C)c1ccc(/C=N/NC(=O)C2COc3ccccc3O2)o1 (centres undefined)
EC50 [1]: > 195 µM (not active)

COc1ccc(/C=N/Nc2ncccc2[N+](=O)[O-])c(OC)c1
EC50 [5]: 2.57 µM (active) | EC50 [6]: 2.42 µM (active)

CCc1ccc(/C=N/NC(=O)c2nnn(-c3nonc3N)c2CN2CCOCC2)cc1
EC50 [5]: 52.9 µM (active) | EC50 [6]: > 112 µM (not active)

COc1ccccc1N1CCN(CCN2C(=O)c3ccccc3C(C)(C)C2=O)CC1
AC50 [8]: 39.8 µM (inconclusive) | AC50 [4]: 15.8 µM (inconclusive)
